# Counter-ions that a name gives are not always drawn.
row,Compound,melting point
1,"OCCOc1ccc(OCCOc2nccnc2N2CCNCC2)cc1 (as salt: maleate) [Example 120, 2-[4-(2-{[3-(1-piperazinyl)-2-pyrazinyl]oxy}ethoxy)phenoxy]ethanol]",127 to 129 °C
2,"Clc1cc2nc(OCCOc3cccnc3)c(N3CCNCC3)nc2cc1Cl (as salt: maleate) [Example 164, 2-[2-(3-Pyridinyloxy)ethoxy]-3-(1-piperazinyl)-6,7-dichloroquinoxaline]",187 to 189 °C
3,"c1cnc2ccc(OCCOc3nccnc3N3CCNCC3)cc2c1 (as salt: maleate) [Example 136, 2-(6-Quinolinyloxy)ethyl 3-(1-piperazinyl)-2-pyrazinyl ether]",167 to 169 °C
4,"CC1(C)Cc2cccc(OCCOc3nccnc3N3CCNCC3)c2O1 (as salt: maleate) [Example 158, 2-(2,3-Dihydro-2,2-dimethyl-7-benzofuranyloxy)ethyl 3-(1-piperazinyl)-2-pyrazinyl ether]",156 to 157 °C
5,"Brc1cccc(OCCOc2nccnc2N2CCNCC2)c1 [Example 37, 2-(3-Bromophenoxy)ethyl 3-(1-piperazinyl)-2-pyrazinyl ether]",62 to 63 °C
6,"c1cncc(OCCOc2nc3ccccc3nc2N2CCNCC2)c1 (as salt: maleate) [Example 162, 2-[2-(3-Pyridinyloxy)ethoxy]-3-(1-piperazinyl)quinoxaline]",137 to 139 °C
7,"CNc1ccc2cccc(OCCOc3nccnc3N3CCNCC3)c2n1 [Example 181, N-Methyl-8-(2-{[3-(1-piperazinyl)-2-pyrazinyl]oxy}ethoxy)-2-quinolinamine]",54 to 56.5 °C
8,"c1ccc2c(c1)OC[C@@H](COc1nccnc1N1CCNCC1)O2 (as salt: hydrochloride) [Example 148, 2-[(2S)-2,3-Dihydro-1,4-benzodioxin-2-ylmethoxy]-3-(1-piperazinyl)pyrazine]",160 °C (dec.)
9,"Brc1ncccc1OCCOc1nccnc1N1CCNCC1 (as salt: fumarate) [Example 195, 2-{2-[(2-Bromo-3-pyridinyl)oxy]ethoxy}-3-(1-piperazinyl)pyrazine]",202 °C
10,"COc1ccc(OCCOc2nccnc2N2CCNCC2)cn1 (as salt: maleate) [Example 204, 2-{2-[(6-Methoxy-3-pyridinyl)oxy]ethoxy}-3-(1-piperazinyl)pyrazine]",151.8 to 152.6 °C
11,"Cc1ccc(OCCOc2nccnc2N2CCNCC2)cn1 (as salt: hydrochloride) [Example 153, 2-(6-Methyl-3-pyridyloxy)ethyl 3-(1-piperazinyl)-2-pyrazinyl ether]",157 °C (dec.)
12,"Cc1ccc(OCCOc2nccnc2N2CCNC[C@H]2C)cn1 (as salt: fumarate) [Example 176, (2R)-2-Methyl-1-(3-{2-[(6-methyl-3-pyridinyl)oxy]ethoxy}-2-pyrazinyl)piperazine]",115 °C (dec.)
13,"c1coc(COc2nccnc2N2CCNCC2)c1 (as salt: maleate) [Example 2, 2-(2-Furylmethoxy)-3-(1-piperazinyl)pyrazine]",118 to 120 °C
14,"Fc1cccc(OCCOc2nccnc2N2CCNCC2)c1 (as salt: maleate) [Example 101, 2-[2-(3-Fluorophenoxy)ethoxy]-3-(1-piperazinyl)pyrazine]",141 to 143 °C
15,"CSc1ncccc1OCCOc1nccnc1N1CCNC[C@H]1C (as salt: fumarate) [Example 198, (2R)-2-Methyl-1-[3-(2-{[2-(methylsulfanyl)-3-pyridinyl]oxy}ethoxy)-2-pyrazinyl]piperazine]",179 °C
16,"C[C@@H]1CNC[C@H](C)N1c1nccnc1OCCOc1cccnc1 (as salt: fumarate) [Example 179, cis-2,6-Dimethyl-1-{3-[2-(3-pyridinyloxy)ethoxy]-2-pyrazinyl}piperazine]",157 °C (dec.)
17,"Cc1nc(OCCOc2ccccc2)c(N2CCNCC2)nc1C (as salt: hydrochloride) [Example 183, 5,6-Dimethyl-2-(2-phenoxyethoxy)-3-(1-piperazinyl)pyrazine]",138 to 140 °C

# Source: US7071180B2, “Certain arylaliphatic and heteroaryl-aliphatic piperazinyl pyrazines and their use in the treatment of serotonin-related diseases” (Biovitrum AB, priority 1999, dated 2006)
